The text below walks through data of patent US6506749B2, “7-oxo-pyridopyrimidines (I)” (Syntex (U.S.A.) LLC, priority 2000, dated 2003).

A word on the melting point: it is the temperature, or range, at which the solid turns liquid.

Structures can show the parent of a compound that is named as a salt.

`O=CO[C@H]1CC[C@H](Nc2ncc3cc(-c4ccccc4Cl)c(=O)[nH]c3n2)CC1` [Cpd 19] had a melting point of more than 300 °C.
Consider `Cl.O=C1CCC(Nc2ncc3cc(-c4ccccc4Cl)c(=O)n(-c4ccc(F)cc4)c3n2)CC1`, for which the melting point was in the range of 242.7 to 243.6 °C.
In turn, `CCCS(=O)(=O)N1CCC(Nc2ncc3cc(-c4ccccc4Cl)c(=O)n(C)c3n2)CC1.Cl` gave a melting point of 193.3 to 194.1 °C.
As to `O=c1[nH]c2nc(N[C@H]3CC[C@H](O)CC3)ncc2cc1-c1ccccc1Cl` (as salt: hydrochloride) [Example 11, 2-(trans-4-hydroxycyclohexylamino)-6-(2-chlorophenyl)-pyrido[2,3-d]pyrimidin-7-ol], the melting point lay in the range of 191.1 to 194.3 °C.
In the case of `CC(=O)O[C@H]1CC[C@H](Nc2ncc3cc(-c4ccccc4Cl)c(=O)[nH]c3n2)CC1.Cl`, the melting point was more than 300 °C.
In turn, `Cl.Cn1c(=O)c(-c2ccccc2Cl)cc2cnc(NC3CCN(CC#N)CC3)nc21` came in with a melting point of 228.3 to 228.9 °C.
With `CO[C@H]1CC[C@H](N(C)c2ncc3cc(-c4ccccc4Cl)c(=O)n(C)c3n2)CC1.Cl`, the melting point was in the range of 182.3 to 183.1 °C.
Molecule `CNC(=O)CN1CCC(Nc2ncc3cc(-c4ccccc4Cl)c(=O)n(C)c3n2)CC1.Cl` yielded a melting point of 64 to 102.6 °C.
The molecule `Cn1c(=O)c(-c2ccccc2Cl)cc2cnc(NC3CCSCC3)nc21` (as salt: HCl) [Example 78, 2-(4-tetrahydrothiopyranylamino)-6-(2-chlorophenyl)-8-methyl-8H-pyrido[2,3-d]pyrimidin-7-one] came in with a melting point of 232.1 to 233.1 °C.
In the case of `CC(C)(C)Cn1c(=O)c(-c2ccccc2Cl)cc2cnc(NC3CCS(=O)(=O)CC3)nc21.Cl`, the melting point is 223.7 to 230.2 °C.
As for `Cl.O=c1c(-c2ccccc2Cl)cc2cnc(N[C@H]3CC[C@H](O)CC3)nc2n1CCO`, the figure is 210.5 to 212 °C; as for `Cl.O=c1[nH]c2nc(NCC3CCC(O)CC3)ncc2cc1-c1ccccc1Cl` (centres unmarked), 205 to 213 °C; as for `Cn1c(=O)c(-c2ccccc2Cl)cc2cnc(NC3(CO)CCCC3)nc21` (as salt: salt) [Cpd 2], 213.7 to 214.6 °C.
On to `Cn1c(=O)c(-c2ccccc2Cl)cc2cnc(N[C@H]3CC[C@H](N)CC3)nc21` (as salt: HCl) [Example 38], for which the melting point lay in the range of 163.4 to 171.1 °C.
The molecule `Cl.Cn1c(=O)c(-c2ccccc2Cl)cc2cnc(N[C@@H]3CCOC3)nc21` came in with a melting point of 171.9 to 173 °C.
For `Cc1ccccc1-c1cc2cnc(NC3CCN(S(=O)(=O)C(F)(F)F)CC3)nc2n(C)c1=O.Cl`, the melting point fell in the range of 153 to 162 °C.
Molecule `CCn1c(=O)c(-c2ccccc2Cl)cc2cnc(NC3CCS(=O)(=O)CC3)nc21.Cl` yielded a melting point of 285.2 to 286.7 °C.
Next, `Cl.Cn1c(=O)c(-c2ccccc2Cl)cc2cnc(N[C@H]3CC[C@H](NS(C)(=O)=O)CC3)nc21`: 260.9 to 261.1 °C; `CN(C)S(=O)(=O)N[C@H]1CC[C@H](Nc2ncc3cc(-c4ccccc4Cl)c(=O)[nH]c3n2)CC1.Cl`: 262.2 to 262.5 °C.
`Cl.Cn1c(=O)c(-c2ccccc2Cl)cc2cnc(NC3CCC4(CC3)NC(=O)NC4=O)nc21` (centres unmarked) registered a melting point of more than 300 °C.
For the molecule `O=C1CCC(Nc2ncc3cc(-c4ccccc4Cl)c(=O)n(CC(F)(F)F)c3n2)CC1` (as salt: hydrochloride) [Example 59], the melting point is 251.2 to 252 °C.
`CC(C)S(=O)(=O)N1CCC(Nc2ncc3cc(-c4ccccc4Cl)c(=O)n(C)c3n2)CC1.Cl`: the melting point lay in the range of 132 to 136 °C.
For the molecule `CO[C@H]1CC[C@H](Nc2ncc3cc(-c4ccccc4Cl)c(=O)n(C)c3n2)CC1.Cl`, the melting point fell in the range of 218.2 to 218.5 °C.
With `COC(=O)O[C@H]1CC[C@H](Nc2ncc3cc(-c4ccccc4Cl)c(=O)n(C)c3n2)CC1.Cl`, the melting point lay within 213.9 to 214.4 °C.
For the molecule `CC(C)CNn1c(=O)c(-c2ccccc2Cl)cc2cnc(NC3CCOCC3)nc21.Cl`, the melting point is 111.3 to 117.5 °C.
In turn, `O=c1c(-c2ccccc2Cl)cc2cnc(N[C@H]3CC[C@H](O)CC3)nc2n1Cc1ccccc1` (as salt: HCl) [Example 41] came in with a melting point of 202 to 206 °C.
In turn, `Cn1c(=O)c(-c2ccccc2Cl)cc2cnc(N[C@H]3CC[C@H](NS(C)(=O)=O)CC3)nc21` (as salt: hydrochloride) [Example 14, 2-(trans-4-methanesulfonylaminocyclohexylamino)-6-(2-chlorophenyl)-8-methyl-pyrido[2,3-d]pyrimidin-7-one] yielded a melting point of 260.9 to 261.1 °C.
On to `Cl.Cn1c(=O)c(-c2ccccc2Cl)cc2cnc(NC3CCN(S(C)(=O)=O)CC3)nc21`, for which the melting point fell in the range of 185 to 194 °C.
As for `Cn1c(=O)c(-c2ccccc2Cl)cc2cnc(NC3CCC4(CC3)OCCCO4)nc21` [Cpd 8], the figure is 196.1 to 196.5 °C; as for `Cl.Cn1c(=O)c(-c2ccccc2Cl)cc2cnc(NC3CCC(CO)CC3)nc21` (centres unmarked), 153.6 to 157 °C.
`N[C@H]1CC[C@H](Nc2ncc3cc(-c4ccccc4Cl)c(=O)[nH]c3n2)CC1` (as salt: salt) [Cpd 17] returned a melting point of more than 300 °C.
The molecule `CCS(=O)(=O)N1CCC(Nc2ncc3cc(-c4ccccc4C)c(=O)n(C)c3n2)CC1.Cl` came in with a melting point of 218.5 to 219.3 °C.
The molecule `Cl.O=c1c(-c2ccccc2Cl)cc2cnc(NC3CCOCC3)nc2n1CCO` had a melting point of 217 to 220 °C.
Next, `CC(CCO)Nc1ncc2cc(-c3ccccc3Cl)c(=O)n(C)c2n1.Cl` (centres unmarked): 180.7 to 189.2 °C.
As for `CCS(=O)(=O)N1CCC(Nc2ncc3cc(-c4ccccc4F)c(=O)n(C)c3n2)CC1.Cl`, the figure is 192.5 to 195 °C; as for `Cl.Cn1cc(/C=N\C(=N)NC2CCOCC2)cc(-c2ccccc2N)c1=O`, 210.7 to 211.9 °C.
Next, `Cl.O=c1[nH]c2nc(NC3CCOCC3)ncc2cc1-c1ccccc1Cl`: more than 300 °C; `Cl.N#CCn1c(=O)c(-c2ccccc2Cl)cc2cnc(NC3CCOCC3)nc21`: 230.2 to 230.4 °C.
`Cl.Cn1c(=O)c(-c2ccccc2Cl)cc2cnc(NC3CCN(CCS(C)(=O)=O)CC3)nc21` displayed a melting point of 204.6 to 205.6 °C.
Next, `Cl.Cn1c(=O)c(-c2ccccc2Cl)cc2cnc(NC3(CO)CCCCC3)nc21`: 185 to 188.6 °C; `Cn1c(=O)c(-c2ccccc2Cl)cc2cnc(NC3CCC(OC=O)CC3)nc21` (centres unmarked) [Cpd 4]: 196.1 to 196.6 °C.
Take `Cl.O=c1c(-c2ccccc2Cl)cc2cnc(N[C@H]3CC[C@H](O)CC3)nc2n1C1CC1`: the melting point lay in the range of 241.7 to 242.3 °C.
Next, `Cl.Nn1c(=O)c(-c2ccccc2Cl)cc2cnc(NC3CCOCC3)nc21`: 207.1 to 215.9 °C; `Cl.Cn1c(=O)c(-c2ccccc2Cl)cc2cnc(NC3CCC(C(=O)O)CC3)nc21` (centres unmarked): 263.6 to 264.2 °C; `CN(C)S(=O)(=O)N[C@H]1CC[C@H](Nc2ncc3cc(-c4ccccc4Cl)c(=O)n(C)c3n2)CC1.Cl`: 226.5 to 229 °C.
In the case of `CC(C)(O)Cn1c(=O)c(-c2ccccc2Cl)cc2cnc(NC3CCOCC3)nc21` [Cpd 117], the melting point lay within 189 to 191.5 °C.
Regarding `Cl.O=c1[nH]c2nc(NC3CCNCC3)ncc2cc1-c1ccccc1Cl`, the melting point was more than 300 °C.
